In PubChem BioAssay AID248 (DTP/NCI, 2004):
Values joined by “and” are separate entries in the source; they are usually repeats but may differ in a detail not shown here. Identical values can stand only once. Inconclusive results and toxic doses are left out.

System: L1210 leukemia ip in BDF1 mice, survival T/C
Test: NCI In Vivo Anticancer Drug Screen. Data for tumor model L1210 Leukemia (intraperitoneal) in B6D2F1 (BDF1) mice
Conditions: higher = longer survival
Summary of the method: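 Survival endpoint. Drug-treated group vs vehicle group, expressed as T divided by C. Tumor passaged by transplantation.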

Nc1nc(=O)n(C2OC(CO)C(O)C2O)cc1F (stereo not drawn)
T/C (endpoint: mean survival time, dose: 0.02 mg/kg/injection, schedule: Q#A X020 (ip), vehicle: saline): 104 % of control
T/C (endpoint: mean survival time, dose: 0.04 mg/kg/injection, schedule: Q#A X020 (ip), vehicle: saline): 109 % of control
T/C (endpoint: mean survival time, dose: 0.05 mg/kg/injection, schedule: Q01DX010 (ip), vehicle: saline): 98 % of control
T/C (endpoint: mean survival time, dose: 0.09 mg/kg/injection, schedule: Q01DX010 (ip), vehicle: saline): 102 % of control
T/C (endpoint: mean survival time, dose: 0.09 mg/kg/injection, schedule: Q#A X020 (ip), vehicle: saline): 118 % of control
T/C (endpoint: mean survival time, dose: 0.16 mg/kg/injection, schedule: Q03DX003 (ip), vehicle: saline): 108 % of control
T/C (endpoint: mean survival time, dose: 0.19 mg/kg/injection, schedule: Q01DX010 (ip), vehicle: saline): 118 % of control
T/C (endpoint: mean survival time, dose: 0.31 mg/kg/injection, schedule: Q03DX003 (ip), vehicle: saline): 108 % of control
T/C (endpoint: mean survival time, dose: 0.37 mg/kg/injection, schedule: Q#A X020 (ip), vehicle: saline): 169 % of control
T/C (endpoint: mean survival time, dose: 0.38 mg/kg/injection, schedule: Q01DX010 (im), vehicle: saline): 114 % of control
T/C (endpoint: mean survival time, dose: 0.38 mg/kg/injection, schedule: Q01DX010 (ip), vehicle: saline): 110 % of control
T/C (endpoint: mean survival time, dose: 0.38 mg/kg/injection, schedule: Q01DX010 (sc), vehicle: saline): 112 % of control
T/C (endpoint: mean survival time, dose: 0.63 mg/kg/injection, schedule: Q03DX003 (ip), vehicle: saline): 122 % of control
T/C (endpoint: mean survival time, dose: 0.75 mg/kg/injection, schedule: Q01DX010 (im), vehicle: saline): 120 % of control
T/C (endpoint: mean survival time, dose: 0.75 mg/kg/injection, schedule: Q#A X020 (ip), vehicle: saline): 211 % of control
T/C (endpoint: mean survival time, dose: 1.25 mg/kg/injection, schedule: Q03DX003 (ip), vehicle: saline): 122 % of control
T/C (endpoint: mean survival time, dose: 1.5 mg/kg/injection, schedule: Q01DX010 (ip), vehicle: saline): 177 % of control
T/C (endpoint: mean survival time, dose: 1.5 mg/kg/injection, schedule: Q#A X020 (ip), vehicle: saline): 217 % of control
T/C (endpoint: mean survival time, dose: 1.56 mg/kg/injection, schedule: Q01DX010 (oral), vehicle: saline): 106 % of control
T/C (endpoint: mean survival time, dose: 2.5 mg/kg/injection, schedule: Q01DX001 (ip), vehicle: saline): 120 % of control
T/C (endpoint: mean survival time, dose: 2.5 mg/kg/injection, schedule: Q03DX004 (ip), vehicle: saline): 157 % of control
T/C (endpoint: mean survival time, dose: 2.5 mg/kg/injection, schedule: Q07DX002 (ip), vehicle: saline): 111 % of control
T/C (endpoint: mean survival time, dose: 3.0 mg/kg/injection, schedule: Q01DX006 (iv), vehicle: saline): 124 % of control
T/C (endpoint: mean survival time, dose: 3.0 mg/kg/injection, schedule: Q01DX010 (im), vehicle: saline): 159 % of control and 166 % of control
T/C (endpoint: mean survival time, dose: 3.0 mg/kg/injection, schedule: Q01DX010 (ip), vehicle: saline): 166 % of control
T/C (endpoint: mean survival time, dose: 3.0 mg/kg/injection, schedule: Q01DX010 (sc), vehicle: saline): 152 % of control and 162 % of control
T/C (endpoint: mean survival time, dose: 3.12 mg/kg/injection, schedule: Q01DX015 (ip), vehicle: saline): 195 % of control
T/C (endpoint: mean survival time, dose: 3.13 mg/kg/injection, schedule: Q01DX010 (oral), vehicle: saline): 112 % of control
T/C (endpoint: mean survival time, dose: 4.0 mg/kg/injection, schedule: Q01DX009 (ip), vehicle: saline): 173 % of control
T/C (endpoint: mean survival time, dose: 5.0 mg/kg/injection, schedule: Q01DX001 (ip), vehicle: saline): 122 % of control
T/C (endpoint: mean survival time, dose: 5.0 mg/kg/injection, schedule: Q03DX004 (ip), vehicle: saline): 157 % of control
T/C (endpoint: mean survival time, dose: 6.0 mg/kg/injection, schedule: Q01DX010 (im), vehicle: saline): 176 % of control
T/C (endpoint: mean survival time, dose: 6.0 mg/kg/injection, schedule: Q01DX010 (ip), vehicle: saline): 183 % of control
T/C (endpoint: mean survival time, dose: 6.0 mg/kg/injection, schedule: Q01DX010 (sc), vehicle: saline): 178 % of control
T/C (endpoint: mean survival time, dose: 6.25 mg/kg/injection, schedule: Q01DX010 (oral), vehicle: saline): 118 % of control
T/C (endpoint: mean survival time, dose: 8.0 mg/kg/injection, schedule: Q01DX009 (ip), vehicle: saline): 216 % of control
T/C (endpoint: mean survival time, dose: 10.0 mg/kg/injection, schedule: Q01DX001 (ip), vehicle: saline): 124 % of control
T/C (endpoint: mean survival time, dose: 10.0 mg/kg/injection, schedule: Q03DX004 (ip), vehicle: saline): 160 % of control
T/C (endpoint: mean survival time, dose: 10.0 mg/kg/injection, schedule: Q03DX Z (ip), vehicle: saline): 166 % of control
T/C (endpoint: mean survival time, dose: 12.0 mg/kg/injection, schedule: Q01DX006 (iv), vehicle: saline): 157 % of control
T/C (endpoint: mean survival time, dose: 12.0 mg/kg/injection, schedule: Q01DX010 (im), vehicle: saline): 217 % of control
T/C (endpoint: mean survival time, dose: 12.0 mg/kg/injection, schedule: Q01DX010 (ip), vehicle: saline): 197 % of control
T/C (endpoint: mean survival time, dose: 12.0 mg/kg/injection, schedule: Q01DX010 (sc), vehicle: saline): 203 % of control
T/C (endpoint: mean survival time, dose: 12.0 mg/kg/injection, schedule: Q#A X020 (ip), vehicle: saline): 201 % of control
T/C (endpoint: mean survival time, dose: 12.5 mg/kg/injection, schedule: Q01DX010 (oral), vehicle: saline): 153 % of control
T/C (endpoint: mean survival time, dose: 20.0 mg/kg/injection, schedule: Q01DX001 (ip), vehicle: saline): 118 % of control
T/C (endpoint: mean survival time, dose: 20.0 mg/kg/injection, schedule: Q03DX Z (ip), vehicle: saline): 174 % of control
T/C (endpoint: mean survival time, dose: 24.0 mg/kg/injection, schedule: Q01DX006 (iv), vehicle: saline): 160 % of control and 191 % of control
T/C (endpoint: mean survival time, dose: 24.0 mg/kg/injection, schedule: Q01DX010 (ip), vehicle: saline): 191 % of control
T/C (endpoint: mean survival time, dose: 24.0 mg/kg/injection, schedule: Q#A X020 (ip), vehicle: saline): 120 % of control
T/C (endpoint: mean survival time, dose: 25.0 mg/kg/injection, schedule: Q01DX005 (ip), vehicle: saline): 150 % of control and 160 % of control
T/C (endpoint: mean survival time, dose: 25.0 mg/kg/injection, schedule: Q01DX010 (oral), vehicle: saline): 174 % of control
T/C (endpoint: mean survival time, dose: 40.0 mg/kg/injection, schedule: Q01DX001 (ip), vehicle: saline): 122 % of control
T/C (endpoint: mean survival time, dose: 40.0 mg/kg/injection, schedule: Q01DX005 (ip), vehicle: saline): 174 % of control
T/C (endpoint: mean survival time, dose: 40.0 mg/kg/injection, schedule: Q03DX Z (ip), vehicle: saline): 198 % of control
T/C (endpoint: mean survival time, dose: 48.0 mg/kg/injection, schedule: Q01DX006 (iv), vehicle: saline): 180 % of control
T/C (endpoint: mean survival time, dose: 48.0 mg/kg/injection, schedule: Q01DX010 (ip), vehicle: saline): 116 % of control
T/C (endpoint: mean survival time, dose: 48.0 mg/kg/injection, schedule: Q#A X020 (ip), vehicle: saline): 101 % of control
T/C (endpoint: mean survival time, dose: 50.0 mg/kg/injection, schedule: Q01DX001 (ip), vehicle: saline): 124 % of control
T/C (endpoint: mean survival time, dose: 50.0 mg/kg/injection, schedule: Q01DX010 (oral), vehicle: saline): 186 % of control
T/C (endpoint: mean survival time, dose: 64.0 mg/kg/injection, schedule: Q01DX009 (oral), vehicle: saline): 168 % of control
T/C (endpoint: mean survival time, dose: 80.0 mg/kg/injection, schedule: Q01DX005 (ip), vehicle: saline): 168 % of control
T/C (endpoint: mean survival time, dose: 80.0 mg/kg/injection, schedule: Q03DX004 (ip), vehicle: saline): 180 % of control
T/C (endpoint: mean survival time, dose: 80.0 mg/kg/injection, schedule: Q03DX Z (ip), vehicle: saline): 201 % of control
T/C (endpoint: mean survival time, dose: 96.0 mg/kg/injection, schedule: Q01DX006 (iv), vehicle: saline): 177 % of control
T/C (endpoint: mean survival time, dose: 96.0 mg/kg/injection, schedule: Q01DX010 (ip), vehicle: saline): 112 % of control
T/C (endpoint: mean survival time, dose: 96.0 mg/kg/injection, schedule: Q#A X020 (ip), vehicle: saline): 103 % of control
T/C (endpoint: mean survival time, dose: 100.0 mg/kg/injection, schedule: Q01DX001 (ip), vehicle: saline): 118 % of control
T/C (endpoint: mean survival time, dose: 100.0 mg/kg/injection, schedule: Q01DX009 (ip), vehicle: saline): 183 % of control
T/C (endpoint: mean survival time, dose: 100.0 mg/kg/injection, schedule: Q01DX010 (oral), vehicle: saline): 157 % of control
T/C (endpoint: mean survival time, dose: 128.0 mg/kg/injection, schedule: Q01DX001 (oral), vehicle: saline): 110 % of control
T/C (endpoint: mean survival time, dose: 128.0 mg/kg/injection, schedule: Q01DX009 (oral), vehicle: saline): 181 % of control
T/C (endpoint: mean survival time, dose: 160.0 mg/kg/injection, schedule: Q01DX005 (ip), vehicle: saline): 168 % of control
T/C (endpoint: mean survival time, dose: 160.0 mg/kg/injection, schedule: Q03DX004 (ip), vehicle: saline): 198 % of control
T/C (endpoint: mean survival time, dose: 160.0 mg/kg/injection, schedule: Q07DX002 (ip), vehicle: saline): 154 % of control
T/C (endpoint: mean survival time, dose: 160.0 mg/kg/injection, schedule: Q07DX Z (ip), vehicle: saline): 152 % of control
T/C (endpoint: mean survival time, dose: 192.0 mg/kg/injection, schedule: Q01DX006 (iv), vehicle: saline): 95 % of control
T/C (endpoint: mean survival time, dose: 192.0 mg/kg/injection, schedule: Q01DX010 (im), vehicle: saline): 110 % of control
T/C (endpoint: mean survival time, dose: 192.0 mg/kg/injection, schedule: Q01DX010 (ip), vehicle: saline): 108 % of control
T/C (endpoint: mean survival time, dose: 192.0 mg/kg/injection, schedule: Q01DX010 (sc), vehicle: saline): 119 % of control
T/C (endpoint: mean survival time, dose: 200.0 mg/kg/injection, schedule: Q01DX001 (ip), vehicle: saline): 119 % of control
T/C (endpoint: mean survival time, dose: 200.0 mg/kg/injection, schedule: Q01DX009 (ip), vehicle: saline): 93 % of control
T/C (endpoint: mean survival time, dose: 256.0 mg/kg/injection, schedule: Q01DX001 (oral), vehicle: saline): 117 % of control
T/C (endpoint: mean survival time, dose: 320.0 mg/kg/injection, schedule: Q07DX002 (ip), vehicle: saline): 182 % of control
T/C (endpoint: median survival time, dose: 2.0 mg/kg/injection, schedule: Q01DX009 (ip), vehicle: saline with Tween-80): 168 % of control
T/C (endpoint: median survival time, dose: 4.0 mg/kg/injection, schedule: Q01DX009 (ip), vehicle: saline with Tween-80): 175 % of control
T/C (endpoint: median survival time, dose: 4.0 mg/kg/injection, schedule: Q01DX009 (ip), vehicle: saline): 160 % of control and 175 % of control
T/C (endpoint: median survival time, dose: 8.0 mg/kg/injection, schedule: Q01DX009 (ip), vehicle: saline with Tween-80): 183 % of control
T/C (endpoint: median survival time, dose: 8.0 mg/kg/injection, schedule: Q01DX009 (ip), vehicle: saline): 170 % of control and 187 % of control
T/C (endpoint: median survival time, dose: 16.0 mg/kg/injection, schedule: Q01DX009 (ip), vehicle: saline with Tween-80): 186 % of control
T/C (endpoint: median survival time, dose: 16.0 mg/kg/injection, schedule: Q01DX009 (ip), vehicle: saline): 190 % of control
T/C (endpoint: median survival time, dose: 32.0 mg/kg/injection, schedule: Q01DX009 (ip), vehicle: saline with Tween-80): 202 % of control
T/C (endpoint: median survival time, dose: 32.0 mg/kg/injection, schedule: Q01DX009 (ip), vehicle: saline): 160 % of control
